Experimental data reported in US20260274814A1, “THIENYL COMPOUNDS FOR THE TREATMENT OF A CENTRAL NERVOUS SYSTEM DISEASE OR DISORDER” (Coreterra Therapeutics, Inc., priority 2023, published 2026).
Counter-ions that a name gives are not always drawn. Like-named read-outs stand apart in the source and are kept apart here.

System: mice
Experiment: Neuropharmacological Assay (SmartCube): automated behavioral signature of compound-treated mice compared with a database of reference drug classes
Assay type: in vivo
Conditions: for minimal effective dose: Mus musculus, ip; for minimal effective dose / MED (minimal effective dose) / MED: i.p., that dose is shown
Excerpt: Neurosci. 2011 Sep. 9; 5: 103 (doi: 10.3389/fnins.2011.00103) (“Roberds”). As reported in Roberds, because psychiatric diseases generally result from disorders of cell-cell communication or circuitry, intact systems are useful in detecting improvement in disease-relevant endpoints. These endpoints are typically behavioral in nature, often requiring human observation and interpretation. To facilitate testing of multiple compounds for behavioral effects relevant to psychiatric disease, PsychoGenics, Inc. (Tarrytown, NY, “PGI”) developed SmartCube™ an automated system in which behaviors of compound-treated mice are captured by digital video and analyzed with computer algorithms. (D. Brunner et al. Drug Discov. Today 2002, 7:S107-S112). PGI Analytical Systems uses data from SmartCube™ to compare the behavioral signature of a test compound to a database of behavioral signatures obtained using a large set of diverse reference compounds. (The composition of the database as well as validation of the method is further described in Roberds). In this way, the neuropharmacological effects of a test compound can be predicted by similarity to major classes of compounds, such as antipsychotics, anxiolytics and antidepressants.
The SmartCube™ system produces an activity signature indicating the probability that the activity of the test compound at the administered dose matches a given class of neuropharmacological agents. (See, e.g., Roberds, FIGS. 2 and 3). The test compound is simultaneously compared against multiple classes of agents; thus, a separate probability is generated for each behavioral effect measured (e.g., anxiolytic activity, analgesic activity, etc.). In table 2 below, these probabilities are reported for each behavioral effect measured as described in Table 1 below.
Provided compounds were dissolved in a mixture of Pharmasolve™ (N-methyl-2-pyrrolidone), polyethylene glycol and propylene glycol, and were injected i.p. 15 min. before the behavioral test. For each compound, injections were administered at 3 different doses. For each behavioral effect measured, results for the 3.0 mg/kg dose are presented. The potency of many of the compounds in the table was also determined in the SmartCube™ system. Test compounds were routinely examined at dose levels of 0.3, 1, 3 and 10 mg per kg (mpk), although the dose range was increased or decreased, if necessary, to obtain a full dose response curve. A compound's minimal effective dose (MED) is a measure of the compound's potency. The MED was defined as the dose (in mpk) having 45% or more total activity in SmartCube. If only one dose was tested, that dose is shown in the MED column of Table 2 even though the dose is not known to be the MED.

[1] = dose having 45% or more total activity in SmartCube, if only one dose was tested, read-out: MED (minimal effective dose)
[2] = probability that activity matches this class of agents, 3.0 mg/kg i.p., 15 min before test
[3] = probability that activity matches this class of agents, 3.0 mg/kg i.p., 15 min before test, hydrochloride, 3 mg/kg
[4] = dose having 45% or more total activity in SmartCube, if only one dose was tested, hydrochloride
[5] = SmartCube class probability, 3.0 mg/kg i.p., 15 min before test
[6] = minimal effective dose: dose having 45% or more total activity in SmartCube, if only one dose tested
[7] = minimal effective dose: dose having 45% or more total activity in SmartCube, if only one dose tested, read-out: MED
[8] = SmartCube class probability, 3.0 mg/kg i.p., 15 min before test, hydrochloride, 3 mg/kg
[9] = SmartCube probability class, 3.0 mg/kg dose, i.p. 15 min before the behavioral test
[10] = SmartCube probability class, 3.0 mg/kg dose, i.p. 15 min before the behavioral test, hydrochloride, 3 mg/kg

SMILES | AG [2] | AN [2] | CE [2] | HL [2] | SH [2] | AD [3] | MS [2] | PS [2] | AD [5] | AG [5] | AN [5] | AP [5] | AX [5] | CE [5] | HL [5] | MS [5] | PS [5] | SH [5] | other results
CNC1CCc2scc(Cl)c2C1 (single isomer, unassigned) [Compound 131, 3-chloro-N-methyl-4,5,6,7-tetrahydrobenzothiophen-5-amine hydrochloride] | ND (^ <4%) | ND (^ <4%) | ND (^ <4%) | ND (^ <4%) | ND (^ <4%) | + (≥4%) |  |  |  |  |  |  |  |  |  |  |  |  | minimal effective dose [1]: 3 mg/kg; AX [2]: ND (^ <4%); AP [3]: ++ (≥24%); MS [3]: + (≥4%); PS [3]: ND (^ <4%); UK [3]: ND (^ <4%)
CNC1COc2ccsc2C1 (single isomer, unassigned) [Compound 46, N-methyl-6,7-dihydro-5H-thieno[3,2-b]pyran-6-amine hydrochloride] | ND (^ <4%) | ND (^ <4%) | ND (^ <4%) | ND (^ <4%) | ND (^ <4%) | ND (^ <4%) | ND (^ <4%) | ND (^ <4%) |  |  |  |  |  |  |  |  |  |  | MED (minimal effective dose) [4]: 10 mpk; AP [2]: ND (^ <4%); AX [3]: + (≥4%); UK [3]: ++ (≥24%)
CNC1CCc2scc(CN)c2C1 (single isomer, unassigned) [Compound 237, 3-(aminomethyl)-N-methyl-4,5,6,7-tetrahydrobenzothiophen-5-amine dihydrochloride] |  |  |  |  |  |  |  |  | ND (^ <4%) | ND (^ <4%) | ND (^ <4%) | ND (^ <4%) | ND (^ <4%) | ND (^ <4%) | ND (^ <4%) | ND (^ <4%) | ND (^ <4%) | ND (^ <4%) | UK (SmartCube class probability, 3.0 mg/kg i.p., 15 min before test, dihydrochloride, 3 mg/kg): + (≥4%); MED [6]: >3 mpk
CNC1CCc2cc(F)sc2C1 (single isomer, unassigned) [Compound 80, 2-fluoro-N-methyl-4,5,6,7-tetrahydrobenzothiophen-6-amine hydrochloride] | ND (^ <4%) | ND (^ <4%) | ND (^ <4%) | ND (^ <4%) | ND (^ <4%) | ++ (≥24%) | ND (^ <4%) | ND (^ <4%) |  |  |  |  |  |  |  |  |  |  | MED (minimal effective dose) [4]: 3 mpk; UK [2]: ND (^ <4%); AP [3]: + (≥4%); AX [3]: + (≥4%)
NC1CCc2scc(C(F)(F)F)c2C1 (stereo not drawn) [Compound 186, 3-(trifluoromethyl)-4,5,6,7-tetrahydrobenzothiophen-5-amine hydrochloride] |  |  |  |  |  |  |  |  | ND (^ <4%) | ND (^ <4%) | ND (^ <4%) | ND (^ <4%) | ND (^ <4%) | ND (^ <4%) | ND (^ <4%) | ND (^ <4%) | ND (^ <4%) | ND (^ <4%) | minimal effective dose [7]: > 3 mg/kg; UK [5]: + (≥4%)
NC1CCc2scc(C3CC3)c2C1 (single isomer, unassigned) [Compound 278, 3-cyclopropyl-4,5,6,7-tetrahydrobenzothiophen-5-amine hydrochloride] |  |  |  |  |  |  |  |  | ND (^ <4%) |  |  |  |  |  |  |  |  |  | UK [5]: + (≥4%); MED [6]: >3 mpk
CNC1(C)CCc2c(C(F)(F)F)csc2C1.Cl (single isomer, unassigned) [Compound 261, N, 6-dimethyl-3-(trifluoromethyl)-5,7-dihydro-4H-benzothiophen-6-amine hydrochloride] |  |  |  |  |  |  |  |  |  | ND (^ <4%) | ND (^ <4%) | ND (^ <4%) | ND (^ <4%) | ND (^ <4%) | ND (^ <4%) | ND (^ <4%) | ND (^ <4%) | ND (^ <4%) | minimal effective dose [7]: 3 mg/kg; AD [8]: +++ (≥49%); UK [8]: + (≥4%)
CNC1Cc2scc(C3CC3)c2C1 (single isomer, unassigned) [Compound 321, 3-cyclopropyl-N-methyl-5,6-dihydro-4H-cyclopenta[b]thiophen-5-amine hydrochloride] |  |  |  |  |  |  |  |  |  |  |  |  |  |  |  |  |  |  | AD [9]: ND (^ <4%); AG [9]: ND (^ <4%); AN [9]: ND (^ <4%); CE [9]: ND (^ <4%); HL [9]: ND (^ <4%); MS [9]: ND (^ <4%); PS [9]: ND (^ <4%); SH [9]: ND (^ <4%); AP [10]: + (≥4%); AX [10]: ++++ (≥74%); UK [10]: ND (^ <4%); MED (minimal effective dose: dose having 45% or more total activity in SmartCube, if only one dose was tested, hydrochloride): 3 mpk
CNC1Cc2scc(C)c2C1 (single isomer, unassigned) [Compound 316, N, 3-dimethyl-5,6-dihydro-4H-cyclopenta[b]thiophen-5-amine hydrochloride] |  |  |  |  |  |  |  |  |  |  |  |  |  |  |  |  |  |  | minimal effective dose (minimal effective dose: dose having 45% or more total activity in SmartCube, if only one dose was tested, read-out: MED): 3 mg/kg; AD [9]: ND (^ <4%); AG [9]: ND (^ <4%); AN [9]: ND (^ <4%); HL [9]: ND (^ <4%); MS [9]: ND (^ <4%); PS [9]: ND (^ <4%); SH [9]: ND (^ <4%); UK [9]: ND (^ <4%); AP [10]: ++++ (≥74%); AX [10]: ND (^ <4%); CE [10]: ND (^ <4%)
NC1CCc2scc(C3CC3)c2C1 (stereo not drawn) [Compound 205, 3-cyclopropyl-4,5,6,7-tetrahydrobenzothiophen-5-amine hydrochloride] |  |  |  |  |  |  |  |  | ND (^ <4%) | ND (^ <4%) | ND (^ <4%) | ND (^ <4%) | ND (^ <4%) | ND (^ <4%) | ND (^ <4%) | ND (^ <4%) | ND (^ <4%) | ND (^ <4%) | minimal effective dose [7]: > 3 mg/kg; UK [5]: ++ (≥24%)
CNC1CCc2csc(C(F)(F)F)c2C1 (single isomer, unassigned) [Compound 61, N-methyl-3-(trifluoromethyl)-4,5,6,7-tetrahydro-2-benzothiophen-5-amine hydrochloride] | ND (^ <4%) | ND (^ <4%) | ND (^ <4%) | ND (^ <4%) | ND (^ <4%) | + (≥4%) | ND (^ <4%) | ND (^ <4%) |  |  |  |  |  |  |  |  |  |  | MED (minimal effective dose) [4]: 3.0 mpk; AX [2]: ND (^ <4%); UK [2]: ND (^ <4%); AP [3]: +++ (≥49%)
CNC1CCc2c(Cl)csc2C1 (stereo not drawn) [Compound 94, 3-chloro-N-methyl-4,5,6,7-tetrahydrobenzothiophen-6-amine hydrochloride] | ND (^ <4%) | ND (^ <4%) | ND (^ <4%) | ND (^ <4%) | ND (^ <4%) |  | ND (^ <4%) | ND (^ <4%) |  |  |  |  |  |  |  |  |  |  | minimal effective dose [1]: 3 mg/kg; AD [2]: ND (^ <4%); AP [2]: ++++ (≥74%); AX [2]: ND (^ <4%); UK [2]: ND (^ <4%)
Cc1csc2c1CC(N)CC2 (single isomer, unassigned) [Compound 144, 3-methyl-4,5,6,7-tetrahydrobenzothiophen-5-amine hydrochloride] |  |  |  |  |  |  |  |  |  | ND (^ <4%) | ND (^ <4%) | ND (^ <4%) | ND (^ <4%) | ND (^ <4%) |  | ND (^ <4%) |  |  | AD [8]: ND (^ <4%); HL [8]: ND (^ <4%); PS [8]: ND (^ <4%); SH [8]: ND (^ <4%); UK [8]: ++++ (≥74%); MED [6]: 1 mpk
